# US20140163096A1, “METHODS AND COMPOSITIONS FOR TREATING HIV-ASSOCIATED DIARRHEA” (priority 2012, published 2014)
# Columns and labels:
# HIV-positive patients = details: human, in vivo
# [1] = Bacterial reverse mutation assay
# rat bone marrow = details: in vivo
# mice = assay: 13-week oral toxicity study in mice; details: mouse, in vivo
# Experimental: One additional group of 15 animals/sex served as the control and received the vehicle, purified water.
# Observations for morbidity, mortality, injury, and the availability of food and water were conducted twice daily for all animals. Detailed clinical observations for clinical signs were conducted weekly on all main study animals. Body weights were measured and recorded weekly on all animals. Food consumption was measured and recorded weekly on all main study animals. Ophthalmoscopic examinations were conducted pretest and prior to necropsy for all main study animals. Blood samples for clinical pathology evaluations were collected from main study animals in extremis and at termination. […] Beginning on Day 7, a limited gross necropsy examination was performed on any TK animal euthanized in extremis or found dead in an effort to determine the cause of death.
# [2] = human, in vivo; cited from earlier work
substance,measurement,setting,value
Crofelemer,"adverse events reported in greater than or equal to 1% and less than 2% of patients, at a higher incidence than placebo",HIV-positive patients,"dizziness, muscle spasms, myalgia, and pain in extremity"
same,adverse reactions in patients who received doses greater than 250 mg daily,HIV-positive patients,similar
same,safety profile by baseline CD4 cell count,HIV-positive patients,similar
same,bacterial reverse mutation assay result,[1],negative
same,rat bone marrow micronucleus assay result,rat bone marrow,negative
same,"clinical pathology, organ weight, and macroscopic effects",mice,observed in both sexes at 1200 mg/kg/day
same,food consumption effects,mice,evident at 40 mg/kg/day in females and ≧400 mg/kg/day in both sexes
same,systemic bioavailability,[2],virtually no systemic bioavailability
